Test results from PMC11739509, “Transport and inhibition of the sphingosine-1-phosphate exporter SPNS2” (Nature Communications, 2025).

What was measured:
SPNS2 [1] = biological target: T1, SPNS2 (Homo sapiens, UniProt Q8IVW8); experiment: S1PR3-coupled S1P export assay in CHO cells; type: cell-based; parameters: untagged wild type SPNS2 overexpressed with SphK1 in CHO-K1 cells
T1 sequence (Q8IVW8 1-549): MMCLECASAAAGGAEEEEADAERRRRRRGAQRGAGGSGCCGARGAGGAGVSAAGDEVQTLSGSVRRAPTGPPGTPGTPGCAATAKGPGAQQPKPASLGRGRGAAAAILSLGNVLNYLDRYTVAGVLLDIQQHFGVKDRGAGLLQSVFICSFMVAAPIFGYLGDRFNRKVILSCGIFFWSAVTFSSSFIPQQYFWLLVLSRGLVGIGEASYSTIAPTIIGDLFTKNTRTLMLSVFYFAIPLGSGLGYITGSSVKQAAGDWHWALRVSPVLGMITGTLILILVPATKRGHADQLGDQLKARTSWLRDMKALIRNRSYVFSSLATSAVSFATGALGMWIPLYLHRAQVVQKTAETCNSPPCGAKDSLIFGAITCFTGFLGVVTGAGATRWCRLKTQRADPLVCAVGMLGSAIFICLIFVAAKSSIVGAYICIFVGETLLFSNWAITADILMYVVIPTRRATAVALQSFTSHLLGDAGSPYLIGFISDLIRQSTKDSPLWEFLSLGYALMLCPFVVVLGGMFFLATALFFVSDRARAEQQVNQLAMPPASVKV

SPNS2 [2] = biological target: T1, SPNS2; experiment: S1PR3-coupled S1P export assay; R200S mutant inactive; type: cell-based; parameters: untagged wild type SPNS2 overexpressed with SphK1 in CHO-K1 cells
SPNS2 [3] = biological target: T1, SPNS2; experiment: cryo-EM structure at […] Å (detergent modeled as dodecyl glucoside; mixture of DDM and S1P not excluded); type: binding; parameters: full-length human SPNS2; residues 1-99, 287-296 and 352-358 not resolved; with nanobody NbD12
[4] = biological target: T2, Biotinylated SPNS2 (full-length, codon-optimized, C-terminal AVI and Flag tag) (Homo sapiens, UniProt Q8IVW8, biotin (AVI tag, BirA co-expressed)); experiment: SPR; Biacore 8K; biotinylated SPNS2 immobilised on SA sensor chip (600 to 800 RU); nanobody series 0 to 1 or 10 uM injected; 20 mM HEPES pH 7.5, 150 mM NaCl, 0.026% DDM, 0.01% fatty acid free BSA; 25 °C; 1:1 interaction model; details: both partners purified
T2 construct: SPNS2, full-length codon-optimized, in the in-house baculovirus vector pD-INS3; The species is not repeated in the paragraph on this construct; also called Biotinylated SPNS2 protein; source: Sf9 cells co-infected with SPNS2 and BirA baculovirus, biotin in the medium; purified in DDM or LMNG (Anti-Flag M2 resin, SEC); not shown: AVI, C-terminal, kept

## CCCCCCCCCCc1ccc2nc(NC[C@H]3CCNC3)oc2c1 [33p, 6-decyl-N-[[(3S)-pyrrolidin-3-yl]methyl]-1,3-benzoxazol-2-amine]
SPNS2 [1]
  IC50: 1900 ± 320 nM

## CCCCCCCCCCCCC/C=C/[C@@H](O)[C@@H](N)COP(=O)(O)O [Sphingosine-1-phosphate]
SPNS2 [2]
  S1PR3-coupled S1P export assay; R200S mutant inactive: Validating this assay, the SPNS2 mutation R200S shows no S1P transport activity

## CCCCCCCCCCCCO[C@@H]1O[C@H](CO)[C@@H](O[C@H]2O[C@H](CO)[C@@H](O)[C@H](O)[C@H]2O)[C@H](O)[C@H]1O [n-dodecyl-β-D-maltopyranoside]
SPNS2 [3]
  cryo-EM structure at 3.7 Å (detergent modeled as dodecyl glucoside); mixture of D: the unknown density fits the acyl chain and first glucose of n-dodecyl-β-D-maltopyranoside

B1: Nanobody D12 (NbD12) (VHH)
VHH: QVQLVESGGGLVQAGGSLRLSCAASGRLLSWYDMAWFRQAPGKEREFVAAVTSTGAGTHYVDSVKGRFTISRVNAKNTMYLQMNSLKPEDTAVYYCAAANTRLTALSLRTTTGSWAYWGKGTPVTVSS
notes: Raised by immunising alpacas with SPNS2 and selected by phage display; Subcloned into pBXNP (Addgene 110098) modified to carry a 1x FLAG tag upstream of the 10x His tag; The FLAG tag is used for capture and detection in the co-IP and the immunofluorescence; source: E. coli MC1061 periplasm, purified
[4]
  Kd: 7.75 nM
